ChEMBL document CHEMBL1201862, “PubChem BioAssay data set” (2004)
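Protocol summary: plate cells (96-well), add compound at 5 concentrations, incubate 48 h, interpolate endpoints linearly. GI50: concentration for 50% inhibition of growth.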 Active and inactive are the calls of the source. Rule as the data show it: active = GI50 up to about 1.1 µM and inactive = higher.

Legend:
Test in all cases: NCI anticancer screen, dose series, 48 h
UO-31 = test system: UO-31
OVCAR-5 = test system: OVCAR-5
SF-295 = test system: SF-295
TK-10 = test system: TK-10
RPMI-8226 = test system: RPMI-8226
HL-60 = test system: HL-60
NCI-H460 = test system: NCI-H460
MOLT-4 = test system: MOLT-4
SF-539 = test system: SF-539
K562 = test system: K562
MDA-MB-231 = test system: MDA-MB-231
LOX IMVI = test system: LOX IMVI
A498 = test system: A498
SK-MEL-2 = test system: SK-MEL-2
NCI-H226 = test system: NCI-H226
DU-145 = test system: DU-145
NCI/ADR-RES = test system: NCI/ADR-RES
SNB-19 = test system: SNB-19
SNB-75 = test system: SNB-75
T47D = test system: T47D

| SMILES | GI50 (UO-31) | GI50 (OVCAR-5) | GI50 (SF-295) | GI50 (TK-10) | GI50 (RPMI-8226) | GI50 (HL-60) | GI50 (NCI-H460) | GI50 (MOLT-4) | GI50 (SF-539) | GI50 (K562) | GI50 (MDA-MB-231) | GI50 (LOX IMVI) | GI50 (A498) | GI50 (SK-MEL-2) | GI50 (NCI-H226) | GI50 (DU-145) | GI50 (NCI/ADR-RES) | GI50 (SNB-19) | GI50 (SNB-75) | GI50 (T47D) |
| --- | --- | --- | --- | --- | --- | --- | --- | --- | --- | --- | --- | --- | --- | --- | --- | --- | --- | --- | --- | --- |
| Cc1n[nH]c(=O)n1/N=C\c1ccccc1 | > 100 µM (inactive) | > 100 µM (inactive) | 59.2 µM (inactive) | > 100 µM (inactive) | > 100 µM (inactive) | > 100 µM (inactive) | > 100 µM (inactive) | > 100 µM (inactive) | > 100 µM (inactive) | > 100 µM (inactive) | > 100 µM (inactive) | > 100 µM (inactive) | > 100 µM (inactive) | 83.9 µM (inactive) | > 100 µM (inactive) | > 100 µM (inactive) | > 100 µM (inactive) |  |  |  |
| CC(=O)NC1(C)CCC(C(C)(C)NC(C)=O)CC1 (stereo not given) | > 100 µM (inactive) | > 100 µM (inactive) | > 100 µM (inactive) | > 100 µM (inactive) | > 100 µM (inactive) | > 100 µM (inactive) | > 100 µM (inactive) | > 100 µM (inactive) | > 100 µM (inactive) | > 100 µM (inactive) | > 100 µM (inactive) | > 100 µM (inactive) | > 100 µM (inactive) |  | > 100 µM (inactive) | > 100 µM (inactive) | > 100 µM (inactive) | > 100 µM (inactive) | > 100 µM (inactive) |  |
| CCN1CCC(O)(c2ccc(OC)cc2)C(C(=O)c2ccc(OC)cc2)C1 (stereo not given) | 18.4 µM (inactive) | 18.4 µM (inactive) | > 100 µM (inactive) | 3.28 µM (inactive) | 4.25 µM (inactive) | 15.9 µM (inactive) | 24 µM (inactive) | 17.5 µM (inactive) | 17 µM (inactive) | 26.1 µM (inactive) |  | 20 µM (inactive) | > 10 µM (inactive) | 19.6 µM (inactive) | > 100 µM (inactive) |  |  | 28.6 µM (inactive) | 16.4 µM (inactive) |  |
| CN(C)C=C1C(=O)c2c(Br)sc(Br)c2C1=O | 29.6 µM (inactive) | 28.1 µM (inactive) | 19.7 µM (inactive) | 28.4 µM (inactive) | 29.8 µM (inactive) | 16.3 µM (inactive) | 20.6 µM (inactive) | 32.7 µM (inactive) | 18.2 µM (inactive) | 22.1 µM (inactive) |  | 20 µM (inactive) | 21.3 µM (inactive) | 14.1 µM (inactive) | 16.3 µM (inactive) | 28.5 µM (inactive) | 26.1 µM (inactive) | 28.7 µM (inactive) | 17 µM (inactive) | 29.9 µM (inactive) |
| Brc1ccc(-c2ccc(-c3ccc(Br)s3)s2)s1 | > 100 µM (inactive) | > 100 µM (inactive) | > 100 µM (inactive) | > 100 µM (inactive) | > 100 µM (inactive) | > 100 µM (inactive) | > 100 µM (inactive) | > 100 µM (inactive) | > 100 µM (inactive) | > 100 µM (inactive) |  | > 100 µM (inactive) | > 100 µM (inactive) | > 100 µM (inactive) | > 100 µM (inactive) | > 100 µM (inactive) | > 100 µM (inactive) | > 100 µM (inactive) | > 100 µM (inactive) | > 100 µM (inactive) |
| CCc1nc2cc(F)ccc2[nH]c1=O | > 100 µM (inactive) | > 100 µM (inactive) | > 100 µM (inactive) | > 100 µM (inactive) | > 100 µM (inactive) | > 100 µM (inactive) | > 100 µM (inactive) | > 100 µM (inactive) | > 100 µM (inactive) | > 100 µM (inactive) | > 100 µM (inactive) | > 100 µM (inactive) | 22.4 µM (inactive) | > 100 µM (inactive) | > 100 µM (inactive) | 65.5 µM (inactive) | > 100 µM (inactive) | > 100 µM (inactive) | 82.8 µM (inactive) |  |
| CC(=O)/N=C1\NC(=O)/C(=C/c2ccc(Cl)cc2Cl)N1C | > 100 µM (inactive) | > 100 µM (inactive) | 96.2 µM (inactive) | > 100 µM (inactive) |  | 0.277 µM (active) | 35.2 µM (inactive) | 7.76 µM (inactive) | 77.4 µM (inactive) |  | 74.6 µM (inactive) | 17.6 µM (inactive) |  | > 100 µM (inactive) | 6.81 µM (inactive) | 60.4 µM (inactive) | 21.7 µM (inactive) | 47.6 µM (inactive) | 58.1 µM (inactive) |  |
| CC1=Nc2nc3ccccc3n2C(C)(C)C1 | > 100 µM (inactive) | > 100 µM (inactive) | > 100 µM (inactive) | > 100 µM (inactive) | > 100 µM (inactive) |  | > 100 µM (inactive) | > 100 µM (inactive) | > 100 µM (inactive) | > 100 µM (inactive) | > 100 µM (inactive) | > 100 µM (inactive) | > 100 µM (inactive) | > 100 µM (inactive) | > 100 µM (inactive) |  | > 100 µM (inactive) | > 100 µM (inactive) | > 100 µM (inactive) | > 100 µM (inactive) |
| COc1cc2cc(c1Cl)N(C)C(=O)C[C@H](OC(=O)[C@H](C)N(C)C(C)=O)[C@]1(C)O[C@H]1[C@H](C)[C@@H]1C[C@@](O)(NC(=O)O1)[C@H](OC)/C=C/C=C(/C)C2 | 0.0944 µM (active) | 6.98 µM (inactive) | 0.0174 µM (active) | 0.238 µM (active) | 0.0133 µM (active) | 0.0125 µM (active) | 0.0157 µM (active) | 0.0229 µM (active) | 0.015 µM (active) | 0.0176 µM (active) |  | 0.0153 µM (active) | 0.0161 µM (active) | 0.0491 µM (active) | 0.0435 µM (active) | 0.00135 µM (active) | 0.0975 µM (active) | 0.0149 µM (active) | 0.0174 µM (active) | > 100 µM (inactive) |
| C/C(CN1C(=O)c2ccccc2C1=O)=N\NS(=O)(=O)c1ccc(F)cc1 | > 100 µM (inactive) | > 100 µM (inactive) | > 100 µM (inactive) | > 100 µM (inactive) | > 100 µM (inactive) | > 100 µM (inactive) | > 100 µM (inactive) | > 100 µM (inactive) | > 100 µM (inactive) | > 100 µM (inactive) |  | > 100 µM (inactive) | > 100 µM (inactive) | > 100 µM (inactive) | > 100 µM (inactive) |  |  | > 100 µM (inactive) | > 100 µM (inactive) |  |
| O=C(O)CCNc1ncc2c(n1)-c1ccccc1OC2 | > 100 µM (inactive) | > 100 µM (inactive) | > 100 µM (inactive) | > 100 µM (inactive) | > 100 µM (inactive) | > 100 µM (inactive) | > 100 µM (inactive) | > 100 µM (inactive) | > 100 µM (inactive) | > 100 µM (inactive) | > 100 µM (inactive) | > 100 µM (inactive) |  | > 100 µM (inactive) | > 100 µM (inactive) | > 100 µM (inactive) | > 100 µM (inactive) | > 100 µM (inactive) | 28.8 µM (inactive) |  |
| COc1ccc(C2=C3c4cc(OC)c(OC)cc4CCN3C(=S)SS2)cc1OC | > 100 µM (inactive) | > 100 µM (inactive) | > 100 µM (inactive) | > 100 µM (inactive) | 63.2 µM (inactive) | 24.4 µM (inactive) | > 100 µM (inactive) | > 100 µM (inactive) | > 100 µM (inactive) | 71 µM (inactive) |  | 40.8 µM (inactive) | 46.6 µM (inactive) | 57 µM (inactive) | > 100 µM (inactive) |  |  | 69 µM (inactive) | 25.1 µM (inactive) |  |
| COC(=O)C(NC(=O)CNC(=O)CSc1nnc(COc2ccc(Cl)cc2)n1-c1ccccc1)C(C)C (stereo not given) | 17.8 µM (inactive) | 18.2 µM (inactive) | 19.5 µM (inactive) | 16.9 µM (inactive) | 20.4 µM (inactive) |  | 18.8 µM (inactive) | 22.3 µM (inactive) | 17.1 µM (inactive) | 33.3 µM (inactive) | 18.5 µM (inactive) | 19.6 µM (inactive) | 21.6 µM (inactive) | 20.8 µM (inactive) | 19.1 µM (inactive) | 18.8 µM (inactive) | > 100 µM (inactive) | 20.3 µM (inactive) | 21.3 µM (inactive) |  |
| CCN(CC)c1ccc2cc(C(N)=O)/c(=N/c3ccc(F)cc3)oc2c1 | 26.9 µM (inactive) | > 100 µM (inactive) | 10.3 µM (inactive) | 10.3 µM (inactive) | > 100 µM (inactive) | > 100 µM (inactive) | 6.76 µM (inactive) | > 100 µM (inactive) |  | > 100 µM (inactive) | 14.5 µM (inactive) | 46.1 µM (inactive) | 39.4 µM (inactive) | 35.7 µM (inactive) | 36.4 µM (inactive) |  | 35.6 µM (inactive) | 25.5 µM (inactive) | 20.4 µM (inactive) | 14.2 µM (inactive) |
| C/C=C/C=N/N(C(=O)c1cc([N+](=O)[O-])cc([N+](=O)[O-])c1)C1=NN=C(c2ccccc2)C(c2ccccc2)N1 (stereo not given) | 43.9 µM (inactive) | > 100 µM (inactive) | 94.6 µM (inactive) | > 100 µM (inactive) | 24.4 µM (inactive) | 18.6 µM (inactive) | 91.2 µM (inactive) | 25.7 µM (inactive) | 42.5 µM (inactive) | 52.8 µM (inactive) |  | 78.5 µM (inactive) | > 100 µM (inactive) | 74 µM (inactive) | > 100 µM (inactive) |  |  | > 100 µM (inactive) | > 100 µM (inactive) |  |
| Cc1[nH]n(C(=N)N)c(=O)c1CCO | > 100 µM (inactive) | > 100 µM (inactive) | > 100 µM (inactive) | > 100 µM (inactive) |  | > 100 µM (inactive) | > 100 µM (inactive) |  | > 100 µM (inactive) | > 100 µM (inactive) | > 100 µM (inactive) | > 100 µM (inactive) | > 100 µM (inactive) | > 100 µM (inactive) | > 100 µM (inactive) | > 100 µM (inactive) | 2.76 µM (inactive) | > 100 µM (inactive) | > 100 µM (inactive) |  |
